Experimental data published in patent publication US20250144250A1, “PH-SENSITIVE FLUOROPHORES” (The General Hospital Corporation, priority 2022, published 2025).

Test system: peritoneal dissemination of ID8 ovarian cancer
Experiment: Intraoperative NIR imaging in mouse model of peritoneal dissemination of ovarian cancer
Assay type: in vivo, mice
Details: for TBR (tumor to background ratio): against normal pancreas
Description: Intraoperative NIR imaging: Seven-week-old female C57BL/6 mice were purchased from the Jackson Laboratory (Bar Harbor, ME) and housed in an AAALAC-certified facility at Massachusetts General Hospital (MGH). All animal procedures were performed in accordance with the Public Health Service Policy on Humane Care of Laboratory Animals and approved by the MGH IACUC (protocol #2016N000136). To establish a murine model of peritoneal dissemination of ovarian cancer, mice were injected intraperitoneally with 5×10^6 cells in 100 μL saline. In this model, macroscopic metastatic intraperitoneal nodules appear reproducibly at approximately 90 d. To perform NIR fluorescence imaging, mice were fed chlorophyll-free mouse chow (VWR International) at least 5 d prior to imaging to minimize autofluorescence. For in vivo imaging of ovarian cancer, animals were anesthetized with 100 mg/kg ketamine and 10 mg/kg xylazine subcutaneously (Webster Veterinary, Fort Devens, MA). Following anesthesia, a midline incision was made to expose the abdominal cavity. To evaluate in vivo tumor targetability of the NIR fluorophores, mice were intraperitoneally injected with 20 nmol of ovarian cancer-targeted NIR fluorophores dissolved in 100 μL saline containing 5 wt/v % BSA. The abdominal cavity was opened with a midline incision, and NIR images were obtained over 4 h of the exposed abdominal cavity. For NIR fluorescence imaging, we used a custom-built real-time intraoperative NIR imaging system as described previously. In this study, a 760 nm excitation was used at a fluence rate of 4 mW/cm^2, with white light (400-650 nm; 40,000 lux). Color and NIR fluorescence images were acquired simultaneously with custom software at rates up to 15 Hz over a 10 cm diameter field-of-view (FOV). Pseudo-colored lime green was used for NIR fluorescence in the color-NIR merged images. The imaging system was positioned at a distance of 9 inches from the surgical field. For all real-time intraoperative imaging, a standardized imaging protocol was used during and after the operation. General FOV (5 cm in dia.) was used to include the pancreas, head, duodenum, liver, and kidneys of a mouse, while closeup FOV (3.3 cm in dia.) included the pancreas, head, and duodenum. Color and NIR fluorescence images were taken simultaneously. Real-time fluorescence signal in tumors (Tu) and tumor-to-background ratio (TBR) compared to neighboring tissue was obtained over the period of imaging, and the fluorescence intensity was plotted to evaluate in vivo molecular biodistribution and clearance. All images were obtained using the same exposure time. Mice were euthanized 4 h post-injection with CO2 inhalation, and tumor tissues and the major organs, including the heart, lung, liver, pancreas, spleen, kidney, duodenum, intestine, muscle, and adnexa, were removed for ex vivo imaging and histological examination. NIR signals from resected tissues were imaged using the FLARE imaging system. The TBR was calculated using the same formula, with IT representing the intensity of the tumor tissue and IB representing the signal intensity of the surrounding tissue over the imaging period.
Evaluation of in vivo efficacy of NIR fluorophores for fluorescence-guided surgery (FGS): Having confirmed the pH sensitivity and tumor cell uptake of PH08 in vitro, we next evaluated the in vivo performance of the pH sensing NIR fluorophores in a mouse model of ovarian cancer. […] In this model, approximately 12 week post-peritoneal injection of ID8 cells, numerous nodules were observed on the peritoneum. These small nodules (<1 mm) are extremely difficult to localize and visualize in the surgical field. Thus, this model was suitable to test the performance of this fluorophore. For imaging of ovarian cancer, 20 nmol of PH08 was administered intraperitoneally. The abdominal cavity was then imaged on the custom-built imaging system. […]

SMILES	TBR (tumor to background ratio)	TBR in words (up to 4 h after administration, compared with PH08)	time to clear visualization of small tumors after injection (20 nmol intraperitoneally) [min]	TBR against surrounding normal tissues and other major organs (20 nmol intraperitoneally, within 10 min of injection)	retention / preservation of signals (post-topical application)	TBR (up to 4 h after injection)	fluorescence recovery / increase time (upon topical application) [min]
CCN1/C(=C/C=C2\CCCC(/C=C/C3=[N+](CC)c4ccccc4C3(C)C)=C2c2ccccc2)C(C)(C)c2ccccc21 [PH03, 1-Ethyl-2-((E)-2-((E)-6-(2-((E)-1-ethyl-3,3-dimethylindolin-2-ylidene)ethylidene)-3,4,5,6-tetrahydro-[1,1′-biphenyl]-2-yl)vinyl)-3,3-dimethyl-3H-indol-1-ium iodide]	++ (++, 2-3)	smaller TBRs					
CCN1/C(=C/C=C2\CCCC(/C=C/C3=[N+](CC)c4ccccc4C3(C)C)=C2N2CCNCC2)C(C)(C)c2ccccc21 [PH08]	+++ (+++, 3-5)		≤ 10	~6	at least 4 h	> 5.5	< 10
